Experiment: in vitro
Conditions: human, hela cells, % viability

Going from `NC(=O)CC[C@H](N)C(=O)N1CC[C@@H]2NC(=O)[C@H](Cc3ccccc3)NC(=O)C3(C/C=C/C[C@@H]2C1)CCOCC3` [CBK292199] to `CC(=O)N1C[C@H](O)C[C@H]1C(=O)N1CC[C@H]2NC(=O)[C@H](Cc3ccccc3)NC(=O)C3(C/C=C/C[C@H]2C1)CCOCC3` [CBK292204], the viability at 28.5 h, 10 µM falls from 109% to 88.7%.

Compared with `CC(=O)N[C@H](C(=O)N1CC[C@H]2NC(=O)[C@@H](Cc3ccccc3)NC(=O)C3(C/C=C/C[C@H]2C1)CCOCC3)[C@@H](C)OC(C)(C)C` [CBK292203], `CC(=O)N[C@H](Cc1c[nH]c2ccccc12)C(=O)N1CC[C@H]2NC(=O)[C@H](Cc3ccccc3)NC(=O)C3(C/C=C/C[C@H]2C1)CCOCC3` [CBK292205] is lower in viability at 28.5 h, 10 µM: 103% for the first, 89.9% for the second.

First: CC(=O)N[C@H](CC(N)=O)C(=O)N1CCC2(C/C=C/C[C@@H]3COCC[C@@H]3NC(=O)[C@@H](CC(C)C)NC2=O)CC1 [CBK292207]
Second: O=C(NCCN1CCOCC1)c1nnc(C(=O)Nc2cccc(Cl)c2)s1 [CBK294405]
The viability at 28.5 h, 10 µM of the first is higher: 106% for the first, 93.9% for the second.

Compared with `CC(=O)Nc1ccc(OC(=O)c2ccc(Br)o2)cc1` [CBK293917], `CC(=O)N1N=C(COc2ccc(C)cc2)OC1c1ccc(Br)cc1` (stereo not shown) [CBK294396] is lower in viability at 28.5 h, 10 µM: 112% for the first, 103% for the second.

Going from `O=[N+]([O-])c1ccc(/C=N/c2cccc(-c3nc4ccccc4s3)c2)cc1` [CBK293918] to `O=[N+]([O-])c1cc(Nc2ncnc3ccccc23)cc(Oc2ccccc2)c1` [CBK293928], the viability at 28.5 h, 10 µM falls from 91.4% to 90.3%.

Going from `O=C1CCCCCC1C(Nc1ccc2ccccc2c1)c1cccnc1` (stereo not shown) [CBK293919] to `CN(C(=O)CSc1nc2ccccc2nc1Cc1ccc(Cl)cc1)C1CCCCC1` [CBK294411], the viability at 28.5 h, 10 µM rises from 86.4% to 104%.

Compared with `CC(C)COC(=O)CCNc1n[nH]c(=O)[nH]c1=O` [CBK293920], `CC(C)CNc1nc2c(c(=O)n(Cc3ccccc3)c(=O)n2C)n1Cc1ccccc1` [CBK293946] is lower in viability at 28.5 h, 10 µM: 86.2% for the first, 81.7% for the second.

Going from `O=C(Nc1ccccc1-c1nc2ccccc2[nH]1)c1ccc2c(c1)OCCO2` [CBK293924] to `O=C(NCc1ccc2c(c1)OCO2)c1ccc(Oc2ccccc2)cc1` [CBK293982], the viability at 28.5 h, 10 µM falls from 104% to 91.4%.

Going from `COc1ccc(Nc2cc(-n3nc(C)cc3-c3ccccc3)ncn2)cc1` [CBK293925] to `COc1ccc(OCc2nc3ccccc3n2C(C)c2ccccc2)cc1` (stereo not shown) [CBK293941], the viability at 28.5 h, 10 µM rises from 104% to 116%.

Compared with `CCC(=O)NC(c1ccc(OC)c(OC)c1)c1ccc2cccnc2c1O` (stereo not shown) [CBK293926], `Cc1ccc(C(NC(=O)CC(C)C)c2ccc3cccnc3c2O)cc1` (stereo not shown) [CBK293943] is higher in viability at 28.5 h, 10 µM: 78% for the first, 89.3% for the second.

Compared with `Fc1ccc(CSc2nnnn2-c2ccc3c(c2)OCO3)cc1` [CBK293927], `COc1ccc(-n2nnnc2SCC(=O)c2ccc(O)c(O)c2)cc1` [CBK293969] is higher in viability at 28.5 h, 10 µM: 85.2% for the first, 90.3% for the second.

Compared with `Cc1ccc(NC2CC(C)N(C(=O)c3cccc([N+](=O)[O-])c3)c3ccc(C)cc32)cc1` (stereo not shown) [CBK293929], `CC(C)Oc1ccc(-c2cc(C(=O)NCc3ccncc3)c3ccccc3n2)cc1` [CBK293957] is higher in viability at 28.5 h, 10 µM: 86.5% for the first, 106% for the second.

Compared with `COc1cccc2cc(C(=O)N3CCN(CCO)CC3)c(=O)oc12` [CBK293932], `COc1ccc(-n2c3c(cc(C(=O)Nc4ccccc4Br)c2=O)C(=O)CCC3)cc1` [CBK293945] is higher in viability at 28.5 h, 10 µM: 89.5% for the first, 95.7% for the second.

First: COc1ccc(C2C=C(c3ccc(OC)c(OC)c3)Nc3ncnn32)c(OC)c1 (stereo not shown) [CBK293934]
Second: COc1cccc(C2CC(c3cccc(Cl)c3)n3nc(N)nc3N2)c1 (stereo not shown) [CBK293966]
The viability at 28.5 h, 10 µM of the first is higher: 93.3% for the first, 85.1% for the second.

Going from `CCCC(=O)NC(c1ccc(OC)cc1)c1cc(Cl)c2cccnc2c1O` (stereo not shown) [CBK293944] to `CCOc1ccccc1NC(=O)c1cc2cccnc2n(Cc2ccc(Cl)cc2)c1=O` [CBK294395], the viability at 28.5 h, 10 µM rises from 87.4% to 109%.

Compared with `Cc1ccc(S(=O)(=O)N2CCN(C(c3ccccc3)c3ccccc3)CC2)cc1[N+](=O)[O-]` [CBK293949], `O=S(=O)(/N=C(/c1ccc(Cl)cc1)N1CCOCC1)c1ccccc1` [CBK293950] is lower in viability at 28.5 h, 10 µM: 103% for the first, 93.5% for the second.

First: CN(C)CCCNC(=O)c1cc2c(n(-c3ccc(Cl)c(Cl)c3)c1=O)CC(C)(C)CC2=O [CBK293952]
Second: CCCCNC(=O)c1nnc(C(=O)Nc2cccc(Cl)c2)s1 [CBK294407]
The viability at 28.5 h, 10 µM of the first is higher: 87.4% for the first, 87.1% for the second.

Going from `Cc1ccc(-c2cc(C(F)(F)F)n3ncc(C(=O)NCc4c(C)nn(C)c4C)c3n2)cc1` [CBK293956] to `Cc1c(C(=O)Nc2cccc(C(F)(F)F)c2)sc2nc(-c3ccccc3)cn12` [CBK294408], the viability at 28.5 h, 10 µM falls from 106% to 87.9%.

Going from `Cc1cc(OC(C)C(=O)N(Cc2cccs2)C2CCS(=O)(=O)C2)cc(C)c1Cl` (stereo not shown) [CBK293962] to `CC(Oc1cccc(Cl)c1)c1nc(-c2cccs2)no1` (stereo not shown) [CBK293984], the viability at 28.5 h, 10 µM rises from 84.3% to 90.8%.

Going from `Cc1ccc2c(c1)N(CCO)/C(=C/c1sc3ccccc3[n+]1CCCS(=O)(=O)[O-])S2` [CBK293965] to `Cc1coc(C)c1C(=O)CC1(O)C(=O)N(CCc2ccccc2)c2ccccc21` (stereo not shown) [CBK293975], the viability at 28.5 h, 10 µM falls from 93.5% to 84.8%.

First: Cc1ccc(Cn2nnc3c(O)nc(C4CCN(C(=O)CC(C)(C)C)CC4)nc32)cc1 [CBK293970]
Second: CC(=O)N1N=C(COc2ccc3c(c2)OCO3)OC1c1ccc(C)cc1 (stereo not shown) [CBK294397]
The viability at 28.5 h, 10 µM of the first is higher: 91.2% for the first, 83% for the second.

Going from `CCSC1=C(C#N)C(=O)NC(c2ccccc2O)S1` (stereo not shown) [CBK293971] to `N#CC1=C(SCc2ccccc2)SC(c2ccc(O)c(O)c2)NC1=O` (stereo not shown) [CBK293972], the viability at 28.5 h, 10 µM falls from 109% to 105%.

Going from `O=c1[nH]c2ccc(Oc3ccc4[nH]c(=O)c(=O)[nH]c4c3)cc2[nH]c1=O` [CBK293978] to `Cc1cc(=O)[nH]c(SCc2cc(=O)c3ccccc3[nH]2)n1` [CBK294410], the viability at 28.5 h, 10 µM falls from 101% to 86.3%.

Going from `Cc1nnc(SCC2=NN(c3nc4ccccc4[nH]3)C(=O)C2)s1` [CBK293979] to `O=c1cc(CSc2nnc(-c3ccccc3)[nH]2)nc2[nH]cnn12` [CBK294398], the viability at 28.5 h, 10 µM falls from 108% to 96.1%.

Going from `Cc1n[n+]2c(C(=O)Nc3ccc(S(=O)(=O)Nc4nccs4)cc3)c(C)[n-]n2c1[N+](=O)[O-]` [CBK293983] to `Cc1ccc(CNC(=O)c2nnc(C(=O)Nc3cccc(Cl)c3)s2)o1` [CBK294404], the viability at 28.5 h, 10 µM rises from 83.2% to 95.2%.

Going from `CC(Oc1cccc(Br)c1)c1nc(-c2ccc(-n3cccc3)cc2)no1` (stereo not shown) [CBK293986] to `CCOc1ccc(CN(Cc2cc(=O)n3nc(-c4ccccc4)sc3n2)CC(C)C)cc1` [CBK294412], the viability at 28.5 h, 10 µM rises from 102% to 103%.

Going from `O=C(CCCn1cc([N+](=O)[O-])cn1)Nc1cc(C(F)(F)F)ccc1Cl` [CBK293987] to `O=C(CSc1nnc(-c2ccco2)[nH]1)Nc1cccc(Cl)c1` [CBK293990], the viability at 28.5 h, 10 µM falls from 108% to 96.7%.

First: N#Cc1c(NC(=O)CSc2nc(=O)cc(N)n2CCc2ccccc2)sc2c1CCCC2 [CBK293993]
Second: O=C(Nc1nnc(SCc2cc(=O)n3nc[nH]c3n2)s1)c1ccc(F)cc1 [CBK294399]
The viability at 28.5 h, 10 µM of the first is lower: 82.4% for the first, 90.2% for the second.

Going from `O=C(Nc1cccc(Cl)c1)c1nnc(C(=O)NC2CCCCC2)s1` [CBK294406] to `CC(C)Cc1cnc2c(c1SCc1ccc(F)cc1)c(=O)n(C)c(=O)n2C` [CBK294409], the viability at 28.5 h, 10 µM rises from 92.6% to 95.6%.

From publication PMC12040169 (PLOS Biology, 2025)
